From US6677460B1, “Aromatic carboxylic acid bicyclic sulfur compounds” (Idemitsu Kosan Company, Limited, priority 1993, dated 2004)

Experiments:
Format in all cases: in vivo
velvetleaf [1] = assay: Foliar treatment test (7); settings: 300 g a.i./hectare, 20th day after spraying
Description: (§1) 90 Parts by weight of the above carrier and 10 parts by weight of each of Compounds obtained in the above Preparation Examples were uniformly pulverized and mixed to obtain herbicides. Further, for Herbicide Comparative Examples, comparative herbicides were prepared by uniformly pulverizing and mixing 90 parts by weight of the above carrier and 10 parts by weight of each of the following Compounds x, y, A, B and C.
(§2) (7) Biological Test (Foliar Treatment Test, Herbicide Examples 43-47 and Comparative Examples 11 and 12)
(§3) Seeds of weeds such as large crabgrass, barnyardgrass, green foxtail, cocklebur, velvetleaf and slender amaranth and seeds of corn, wheat and barley were sown in 1/5,000-are Wagner pots filled with upland soil, and covered with upland soil. The seeds were grown in a greenhouse, and at the stage of 1 to 2 leaves of these plants, a predetermined amount of the herbicide prepared in the above (1) was suspended in water and uniformly sprayed onto leaf and stalk portions at a rate of 200 liter/10 ares. Thereafter, the plants were grown in the greenhouse, and on the 20th day after the spraying treatment, the herbicide was evaluated for herbicidal efficacy.
(§4) The herbicidal efficacy and phytotoxcity to crops were shown on the basis of the following ratings.
(§5) The ratio of remaining plant weight to non-treated was determined on the basis of the ratio of remaining plant weight to non-treated=(remaining plant weight in treated plot/remaining plant weight in non-treated plot)×100. This is also applicable to biological tests hereinafter.

large crabgrass [2] = assay: Foliar treatment test (7); settings: 300 g a.i./hectare, 20th day after spraying
Description: as §1, §2, §3, §4, §5

barnyardgrass = assay: Foliar treatment test (7); settings: 300 g a.i./hectare, 20th day after spraying
Description: as §1, §2, §3, §4, §5

green foxtail [3] = assay: Foliar treatment test (7); settings: 300 g a.i./hectare, 20th day after spraying
Description: as §1, §2, §3, §4, §5

slender amaranth [4] = assay: Foliar treatment test (7); settings: 300 g a.i./hectare, 20th day after spraying
Description: as §1, §2, §3, §4, §5

cocklebur [5] = assay: Foliar treatment test (7); settings: 300 g a.i./hectare, 20th day after spraying
Description: as §1, §2, §3, §4, §5

velvetleaf [6] = assay: Upland soil treatment test (8); settings: 300 g a.i./hectare, 20th day after spraying
Description: as §1
(§6) (8) Biological Test (Upland Soil Treatment Test, Herbicide Examples 48-52 and Herbicide Comparative Examples 13 and 14)
as §3, with “barnyard brass,” for “barnyardgrass,”, “amarnth” for “amaranth”, “covert” for “covered”, “Then,” for “The seeds were grown in a greenhouse, and at the stage of 1 to 2 leaves of these plants,”, “the soil surface.” for “leaf and stalk portions at a rate of 200 liter/10 ares.”, “plant” for “plants”
(§7) The herbicidal efficacy and the phytotoxicity to crops are shown on the basis of the ratings described in (2) Foliar treatment test.

large crabgrass [7] = assay: Upland soil treatment test (8); settings: 300 g a.i./hectare, 20th day after spraying
Description: as §1, §6
as §3, with “barnyard brass,” for “barnyardgrass,”, “amarnth” for “amaranth”, “covert” for “covered”, “Then,” for “The seeds were grown in a greenhouse, and at the stage of 1 to 2 leaves of these plants,”, “the soil surface.” for “leaf and stalk portions at a rate of 200 liter/10 ares.”, “plant” for “plants”
as §7

green foxtail [8] = assay: Upland soil treatment test (8); settings: 300 g a.i./hectare, 20th day after spraying
Description: as §1, §6
as §3, with “barnyard brass,” for “barnyardgrass,”, “amarnth” for “amaranth”, “covert” for “covered”, “Then,” for “The seeds were grown in a greenhouse, and at the stage of 1 to 2 leaves of these plants,”, “the soil surface.” for “leaf and stalk portions at a rate of 200 liter/10 ares.”, “plant” for “plants”
as §7

barnyard grass [9] = assay: Upland soil treatment test (8); settings: 300 g a.i./hectare, 20th day after spraying
Description: as §1, §6
as §3, with “barnyard brass,” for “barnyardgrass,”, “amarnth” for “amaranth”, “covert” for “covered”, “Then,” for “The seeds were grown in a greenhouse, and at the stage of 1 to 2 leaves of these plants,”, “the soil surface.” for “leaf and stalk portions at a rate of 200 liter/10 ares.”, “plant” for “plants”
as §7

slender amaranth [10] = assay: Upland soil treatment test (8); settings: 300 g a.i./hectare, 20th day after spraying
Description: as §1, §6
as §3, with “barnyard brass,” for “barnyardgrass,”, “amarnth” for “amaranth”, “covert” for “covered”, “Then,” for “The seeds were grown in a greenhouse, and at the stage of 1 to 2 leaves of these plants,”, “the soil surface.” for “leaf and stalk portions at a rate of 200 liter/10 ares.”, “plant” for “plants”
as §7

cocklebur [11] = assay: Upland soil treatment test (8); settings: 300 g a.i./hectare, 20th day after spraying
Description: as §1, §6
as §3, with “barnyard brass,” for “barnyardgrass,”, “amarnth” for “amaranth”, “covert” for “covered”, “Then,” for “The seeds were grown in a greenhouse, and at the stage of 1 to 2 leaves of these plants,”, “the soil surface.” for “leaf and stalk portions at a rate of 200 liter/10 ares.”, “plant” for “plants”
as §7

velvetleaf [12] = assay: Upland soil treatment test (3); settings: dosage 3 g a.i./are, 20th day after treatment
Description: as §1
(§8) (3) Biological Test (Upland Soil Treatment Test, Herbicide Examples 3 and 4 and Herbicide Comparative Examples 3 and 4)
as §3, with “Then,” for “The seeds were grown in a greenhouse, and at the stage of 1 to 2 leaves of these plants,”, “the soil surface.” for “leaf and stalk portions at a rate of 200 liter/10 ares.”, “on” for “on the”, “the” for “the spraying”
as §7

large crabgrass [13] = assay: Upland soil treatment test (3); settings: dosage 3 g a.i./are, 20th day after treatment
Description: as §1, §8
as §3, with “Then,” for “The seeds were grown in a greenhouse, and at the stage of 1 to 2 leaves of these plants,”, “the soil surface.” for “leaf and stalk portions at a rate of 200 liter/10 ares.”, “on” for “on the”, “the” for “the spraying”
as §7

green foxtail [14] = assay: Upland soil treatment test (3); settings: dosage 3 g a.i./are, 20th day after treatment
Description: as §1, §8
as §3, with “Then,” for “The seeds were grown in a greenhouse, and at the stage of 1 to 2 leaves of these plants,”, “the soil surface.” for “leaf and stalk portions at a rate of 200 liter/10 ares.”, “on” for “on the”, “the” for “the spraying”
as §7

barnyard grass [15] = assay: Upland soil treatment test (3); settings: dosage 3 g a.i./are, 20th day after treatment
Description: as §1, §8
as §3, with “Then,” for “The seeds were grown in a greenhouse, and at the stage of 1 to 2 leaves of these plants,”, “the soil surface.” for “leaf and stalk portions at a rate of 200 liter/10 ares.”, “on” for “on the”, “the” for “the spraying”
as §7

slender amaranth [16] = assay: Upland soil treatment test (3); settings: dosage 3 g a.i./are, 20th day after treatment
Description: as §1, §8
as §3, with “Then,” for “The seeds were grown in a greenhouse, and at the stage of 1 to 2 leaves of these plants,”, “the soil surface.” for “leaf and stalk portions at a rate of 200 liter/10 ares.”, “on” for “on the”, “the” for “the spraying”
as §7

cocklebur [17] = assay: Upland soil treatment test (3); settings: dosage 3 g a.i./are, 20th day after treatment
Description: as §1, §8
as §3, with “Then,” for “The seeds were grown in a greenhouse, and at the stage of 1 to 2 leaves of these plants,”, “the soil surface.” for “leaf and stalk portions at a rate of 200 liter/10 ares.”, “on” for “on the”, “the” for “the spraying”
as §7

velvetleaf [18] = assay: Foliar treatment test (2); settings: dosage 3 g a.i./are, 20th day after treatment
Description: as §1
(§9) (2) Biological Test (Foliar Treatment Test, Herbicide Examples 1 and 2 and Herbicide Comparative Examples 1 and 2)
as §3, with “barnyard grass,” for “barnyardgrass,”, “1˜2” for “1 to 2”, “are.” for “ares.”, “on” for “on the”, “the” for “the spraying”
as §4, §5

large crabgrass [19] = assay: Foliar treatment test (2); settings: dosage 3 g a.i./are, 20th day after treatment
Description: as §1, §9
as §3, with “barnyard grass,” for “barnyardgrass,”, “1˜2” for “1 to 2”, “are.” for “ares.”, “on” for “on the”, “the” for “the spraying”
as §4, §5

green foxtail [20] = assay: Foliar treatment test (2); settings: dosage 3 g a.i./are, 20th day after treatment
Description: as §1, §9
as §3, with “barnyard grass,” for “barnyardgrass,”, “1˜2” for “1 to 2”, “are.” for “ares.”, “on” for “on the”, “the” for “the spraying”
as §4, §5

barnyard grass [21] = assay: Foliar treatment test (2); settings: dosage 3 g a.i./are, 20th day after treatment
Description: as §1, §9
as §3, with “barnyard grass,” for “barnyardgrass,”, “1˜2” for “1 to 2”, “are.” for “ares.”, “on” for “on the”, “the” for “the spraying”
as §4, §5

slender amaranth [22] = assay: Foliar treatment test (2); settings: dosage 3 g a.i./are, 20th day after treatment
Description: as §1, §9
as §3, with “barnyard grass,” for “barnyardgrass,”, “1˜2” for “1 to 2”, “are.” for “ares.”, “on” for “on the”, “the” for “the spraying”
as §4, §5

cocklebur [23] = assay: Foliar treatment test (2); settings: dosage 3 g a.i./are, 20th day after treatment
Description: as §1, §9
as §3, with “barnyard grass,” for “barnyardgrass,”, “1˜2” for “1 to 2”, “are.” for “ares.”, “on” for “on the”, “the” for “the spraying”
as §4, §5
Also: ranges in brackets are in %.

CCn1ncc(C(=O)c2ccc(S(C)(=O)=O)cc2C)c1O [y, reference compound]
2 (41-60): Herbicidal Efficacy slender amaranth (slender amaranth [4]) | Herbicidal Efficacy green foxtail (green foxtail [8]) | Herbicidal Efficacy green foxtail (green foxtail [14]) | Herbicidal Efficacy barnyard grass (barnyard grass [15]) | Herbicidal Efficacy slender amaranth (slender amaranth [22])
0 (81-100): Herbicidal Efficacy large crabgrass (large crabgrass [2]) | Herbicidal Efficacy barnyard grass (barnyardgrass) | Herbicidal Efficacy green foxtail (green foxtail [3]) | Herbicidal Efficacy velvetleaf (velvetleaf [6]) | Herbicidal Efficacy slender amaranth (slender amaranth [10]) | Herbicidal Efficacy cocklebur (cocklebur [11]) | Herbicidal Efficacy velvetleaf (velvetleaf [12]) | Herbicidal Efficacy slender amaranth (slender amaranth [16]) | Herbicidal Efficacy cocklebur (cocklebur [17]) | Herbicidal Efficacy large crabgrass (large crabgrass [19]) | Herbicidal Efficacy green foxtail (green foxtail [20]) | Herbicidal Efficacy barnyard grass (barnyard grass [21])
3 (21-40): Herbicidal Efficacy velvetleaf (velvetleaf [1]) | Herbicidal Efficacy cocklebur (cocklebur [5]) | Herbicidal Efficacy large crabgrass (large crabgrass [7]) | Herbicidal Efficacy barnyard grass (barnyard grass [9]) | Herbicidal Efficacy large crabgrass (large crabgrass [13]) | Herbicidal Efficacy velvetleaf (velvetleaf [18]) | Herbicidal Efficacy cocklebur (cocklebur [23])
